# Measured values taken from ChEMBL document CHEMBL5727399, “Ectonucleotidase inhibitors and methods of use thereof” (2019).
# Values joined by “and” are separate entries in the source; they are usually repeats but may differ in a detail not shown here. Equal entries are not always repeated.
# Target: 5'-nucleotidase (Homo sapiens, UniProt P21589)
# Assay: The concentration of inorganic phosphate was determined using a phosphate standard curve.
# Sequence of 5'-nucleotidase (P21589 whole entry): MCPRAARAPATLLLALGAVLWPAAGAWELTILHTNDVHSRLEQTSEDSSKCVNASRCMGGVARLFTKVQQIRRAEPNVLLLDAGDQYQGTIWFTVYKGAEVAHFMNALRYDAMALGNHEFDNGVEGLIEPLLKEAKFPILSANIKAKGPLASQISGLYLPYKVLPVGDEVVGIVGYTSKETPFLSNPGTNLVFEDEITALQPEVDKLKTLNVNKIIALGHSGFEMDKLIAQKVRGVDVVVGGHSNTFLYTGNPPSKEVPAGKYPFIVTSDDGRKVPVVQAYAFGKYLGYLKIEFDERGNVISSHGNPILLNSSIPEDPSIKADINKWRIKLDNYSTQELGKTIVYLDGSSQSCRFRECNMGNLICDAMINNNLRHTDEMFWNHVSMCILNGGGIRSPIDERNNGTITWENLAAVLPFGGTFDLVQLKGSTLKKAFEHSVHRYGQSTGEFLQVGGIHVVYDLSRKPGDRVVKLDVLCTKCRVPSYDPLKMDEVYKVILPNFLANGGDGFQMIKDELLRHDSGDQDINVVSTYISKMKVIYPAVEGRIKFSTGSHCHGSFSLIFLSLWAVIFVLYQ
row,IC50,Structure (SMILES)
1,8780 nM,O=C(O)C(OC[C@H]1O[C@@H](n2cnc3c(NCc4ccccc4)nc(Cl)nc32)[C@@H](F)[C@@H]1O)C(=O)O
2,602 nM,Nc1nc(Cl)nc2c1ncn2[C@@H]1O[C@H](COC(Cc2cnc(C(=O)O)s2)(C(=O)O)C(=O)O)[C@@H](O)[C@@H]1F
3,887 nM,N#Cc1ccc(CC(OC[C@H]2O[C@@H](n3cnc4c(N)nc(Cl)nc43)[C@@H](F)[C@@H]2O)(C(=O)O)C(=O)O)cc1F
4,29 nM,Nc1nc(Cl)nc2c1ncn2[C@@H]1O[C@H](COC(Cc2ccc(-c3ccccc3)cc2)(C(=O)O)C(=O)O)[C@@H](O)[C@@H]1F
5,1280 nM,N#Cc1cccc(CC(OC[C@H]2O[C@@H](n3cnc4c(N)nc(N=[N+]=[N-])nc43)[C@@H](F)[C@@H]2O)(C(=O)O)C(=O)O)c1
6,> 50000 nM,Nc1nc(Cl)nc2c1ncn2[C@H]1C[C@H](O)[C@@H](COC(C(=O)O)C(=O)O)O1
7,718 nM,CCOC(=O)C(Cc1ccc(OC(F)(F)F)cc1)(OC[C@H]1O[C@@H](n2cnc3c(N)nc(Cl)nc32)[C@@H](F)[C@@H]1O)C(=O)O (some centres not stated)
8,1890 nM,Nc1nc(Cl)nc2c1ncn2[C@@H]1O[C@H](COC(CCCCO)(C(=O)O)C(=O)O)[C@@H](O)[C@@H]1F
9,12000 nM,CNC(=O)C(OC[C@H]1O[C@@H](n2cnc3c(N)nc(Cl)nc32)[C@@H](F)[C@@H]1O)P(=O)(O)O (some centres not stated)
10,2560 nM,Nc1nc(Cl)nc2c1ncn2[C@@H]1O[C@H](COC(CC(=O)O)(C(=O)O)C(=O)O)[C@@H](O)[C@@H]1F
11,> 50000 nM,[N-]=[N+]=N[C@H]1[C@@H](O)[C@H](n2cnc3c(N)nc(Cl)nc32)O[C@@H]1COC(C(=O)O)C(=O)O
12,> 50000 nM,Nc1nc(Cl)nc2c1ncn2[C@@H]1O[C@H](COC(CC(=O)O)C(=O)O)[C@@H](O)[C@@H]1F (some centres not stated)
13,1510 nM,N#CCC(OC[C@H]1O[C@@H](n2cnc3c(N)nc(Cl)nc32)[C@@H](F)[C@@H]1O)(C(=O)O)C(=O)O
14,2790 nM and 8910 nM,"CCOC(=O)C(OC[C@H]1O[C@@H](n2cnc3c(N)nc(Cl)nc32)[C@@H](F)[C@@H]1O)P(=O)(O)O (single isomer, unassigned)"
15,2860 nM and 3430 nM,"COC(=O)C(Cc1ccc(-c2ccccc2)cc1)(OC[C@H]1O[C@@H](n2cnc3c(N)nc(Cl)nc32)[C@@H](F)[C@@H]1O)C(=O)O (single isomer, unassigned)"
16,7260 nM and 8260 nM,"CCOC(=O)C(Cc1ccc(-c2ccccc2)cc1)(OC[C@H]1O[C@@H](n2cnc3c(N)nc(Cl)nc32)[C@@H](F)[C@@H]1O)C(=O)O (single isomer, unassigned)"
17,2470 nM and 2950 nM,"CCOC(=O)C(OC[C@H]1O[C@@H](n2cnc3c(NC(=O)OC(C)(C)C)nc(Cl)nc32)[C@@H](F)[C@@H]1O)P(=O)(O)O (single isomer, unassigned)"
